Experimental data from US8648195B2, “Stabilized crystal of 2-ethyl-3,7-dimethyl-6-(4-(trifluoromethoxy)phenoxy)quinoline-4-yl methyl carbonate, process for producing the crystal, and agricultural chemical composition comprising the crystal” (priority 2010, dated 2014).

Assays:
[1] = Storage test of aqueous suspension formulations (54° C., 2 weeks): particle size and properties; assay type: physicochemical; conditions: conclusion from storage test
Description: The aqueous suspension formulations of Example 2 and Comparative Example 1 were stored at 54° C. for 2 weeks, and a change in quality between before and after the storage was observed. The size of crystals before and after the storage test was measured with a laser diffraction particle size distribution measuring apparatus and under an optical microscope. [Measurement with Laser Diffraction Particle Size Distribution Measuring Apparatus] Apparatus used: Laser diffraction particle size distribution measuring apparatus SALD-2200 manufactured by Shimadzu Corp The floable formulation diluted with water after the storage test was used for the measurement of particle size with the above measuring apparatus. The A crystal form after the storage could not be suspended in water, and, thus, instead of the suspension, before use in test, was exposed to ultrasonic waves until coarse particle nuclei disappeared. [Measurement Under Optical Microscope] Apparatus used: Digital microscope VHX-200 manufactured by Keyence Corp. Images of the water-diluted floable formulations after the storage test were taken with the apparatus (magnification: 1500 times). The major axes of crystals in the images were measured, and the average was calculated. […]

[2] = test system: Lepidoptera, Hemiptera, Coleoptera, Acari, Hymenoptera, Orthoptera, Diptera, and Order Thysanoptera; conditions: patent documents 5 and 6; cited from earlier work

SMILES	Physicochemical and storage stability of the crystal form [1]	Insecticidal activity [2]
CCc1nc2cc(C)c(Oc3ccc(OC(F)(F)F)cc3)cc2c(OC(=O)OC)c1C [Example 1, 2-ethyl-3,7-dimethyl-6-(4-(trifluoromethoxy)phenoxy)quinoline-4-yl methyl carbonate]	high storage stability	
CCc1nc2cc(C)c(Oc3ccc(OC(F)(F)F)cc3)cc2c(OC(=O)OC)c1C [Compound I, 2-Ethyl-3,7-dimethyl-6-(4-(trifluoromethoxy)phenoxy)-quinoline-4-yl methyl carbonate]		high insecticidal activity
